In ChEMBL document CHEMBL1201862, “PubChem BioAssay data set” (2004):
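Interpolation was linear, between the two tested concentrations surrounding the appropriate level; five concentrations were tested over 48 hours in 96-well plates. GI50 marks 50% less growth.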 Active and inactive are the calls of the source. No stated cut-off is given here; in the data, active = GI50 up to about 1.1 µM and inactive = higher.

Legend:
Assay in all cases: NCI-60 cell line screen, 48 h
LXFL 529 = tested on: LXFL 529
CCRF-CEM = tested on: CCRF-CEM
SF-539 = tested on: SF-539
HOP-92 = tested on: HOP-92
COLO 205 = tested on: COLO 205
UACC-62 = tested on: UACC-62
HCC 2998 = tested on: HCC 2998
M19-MEL = tested on: M19-MEL
SNB-19 = tested on: SNB-19
HCT-116 = tested on: HCT-116
786-0 = tested on: 786-0
UACC-257 = tested on: UACC-257
SNB-78 = tested on: SNB-78
KM12 = tested on: KM12
OVCAR-4 = tested on: OVCAR-4
EKVX = tested on: EKVX
HT-29 = tested on: HT-29
HOP-18 = tested on: HOP-18
UO-31 = tested on: UO-31
SF-295 = tested on: SF-295
NCI-H226 = tested on: NCI-H226
SK-MEL-2 = tested on: SK-MEL-2
OVCAR-3 = tested on: OVCAR-3
SW-620 = tested on: SW-620
SK-OV-3 = tested on: SK-OV-3
IGROV-1 = tested on: IGROV-1
HL-60 = tested on: HL-60
A549 = tested on: A549
K562 = tested on: K562
TK-10 = tested on: TK-10
SK-MEL-5 = tested on: SK-MEL-5
MOLT-4 = tested on: MOLT-4
DMS-114 = tested on: DMS-114
OVCAR-8 = tested on: OVCAR-8
RPMI-8226 = tested on: RPMI-8226
M14 = tested on: M14
HOP-62 = tested on: HOP-62
CAKI-1 = tested on: CAKI-1
Malme-3M = tested on: Malme-3M
DLD-1 = tested on: DLD-1

Measured: GI50

CSc1nc(NC2OC(COC(C)=O)C(OC(C)=O)C(OC(C)=O)C2OC(C)=O)c(/N=C(\C)C(C)=O)c(=O)n1C (stereo not given)
inactive: LXFL 529 > 100 µM | CCRF-CEM > 100 µM | SF-539 > 100 µM | HOP-92 > 100 µM | COLO 205 > 100 µM | UACC-62 > 100 µM | HCC 2998 > 100 µM | M19-MEL > 100 µM | SNB-19 > 100 µM | HCT-116 > 100 µM | 786-0 > 100 µM | UACC-257 > 100 µM | SNB-78 > 100 µM | KM12 > 100 µM | OVCAR-4 > 100 µM | EKVX > 100 µM | HT-29 > 100 µM | HOP-18 > 100 µM | UO-31 > 100 µM | SF-295 > 100 µM | NCI-H226 > 100 µM | SK-MEL-2 > 100 µM | OVCAR-3 > 100 µM | SW-620 > 100 µM | SK-OV-3 > 100 µM | IGROV-1 > 100 µM | HL-60 > 100 µM | A549 > 100 µM | K562 > 100 µM | TK-10 > 100 µM | SK-MEL-5 > 100 µM | MOLT-4 > 100 µM | DMS-114 > 100 µM | OVCAR-8 > 100 µM | RPMI-8226 > 100 µM | M14 > 100 µM | HOP-62 > 100 µM | CAKI-1 > 100 µM | Malme-3M > 100 µM | DLD-1 > 100 µM
